Laboratory results published in PubChem BioAssay AID248 (DTP/NCI, 2004).
“And” between values parts separate entries of the source, which are not always exact repeats. Equal values may be shown once. Inconclusive results and toxic doses are left out. Cut-off read from the data, not from the text of the source: active = T/C of 150% or more; inactive = T/C below 125%.

Test system: L1210 leukemia ip in BDF1 mice, survival T/C
Assay: NCI In Vivo Anticancer Drug Screen. Data for tumor model L1210 Leukemia (intraperitoneal) in B6D2F1 (BDF1) mice
Settings: endpoint: mean survival time, higher = longer survival
Procedure, shortened: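 Read-out is survival time, reported as the treated-group measurement over the vehicle-control measurement.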

[1] = dose: 100.0 mg/kg/injection, schedule: Q01DX001 (ip), vehicle: saline
[2] = dose: 200.0 mg/kg/injection, schedule: Q01DX001 (ip), vehicle: saline
[3] = dose: 100.0 mg/kg/injection, schedule: Q01DX001 (ip), vehicle: saline with Tween-80
[4] = dose: 200.0 mg/kg/injection, schedule: Q01DX001 (ip), vehicle: saline with Tween-80
[5] = dose: 400.0 mg/kg/injection, schedule: Q01DX001 (ip), vehicle: saline with Tween-80
[6] = dose: 100.0 mg/kg/injection, schedule: Q04DX003 (ip), vehicle: saline with Tween-80
[7] = dose: 400.0 mg/kg/injection, schedule: Q01DX001 (ip), vehicle: saline
[8] = dose: 100.0 mg/kg/injection, schedule: Q01DX009 (ip), vehicle: saline with Tween-80
[9] = dose: 400.0 mg/kg/injection, schedule: Q01DX009 (ip), vehicle: saline with Tween-80
[10] = dose: 200.0 mg/kg/injection, schedule: Q04DX003 (ip), vehicle: saline with Tween-80
[11] = dose: 100.0 mg/kg/injection, schedule: Q01DX001 (ip), vehicle: Klucel (hydroxypropylcellulose) (HPC)
[12] = dose: 200.0 mg/kg/injection, schedule: Q01DX001 (ip), vehicle: Klucel (hydroxypropylcellulose) (HPC)

Measured: T/C

Cc1ccc2c(C)nc(N=C(N)N)nc2c1
inactive: dose: 18.8 mg/kg/injection, schedule: Q04DX003 (ip), vehicle: saline 96 % of control | dose: 37.5 mg/kg/injection, schedule: Q04DX003 (ip), vehicle: saline 100 % of control | dose: 75.0 mg/kg/injection, schedule: Q01DX001 (ip), vehicle: saline 103 % of control | dose: 75.0 mg/kg/injection, schedule: Q04DX003 (ip), vehicle: saline 97 % of control

O=C(O)c1cccc(-c2ccccc2)c1O
inactive: [1] 97 % of control | [2] 102 % of control

CCCn1c(=O)cc(/C=N/Nc2ccc([N+](=O)[O-])cc2[N+](=O)[O-])c2ccccc21
inactive: [3] 90 % of control | [4] 90 % of control | [5] 90 % of control

c1ccc(COC2CN3CCC2CC3)cc1 (stereo not drawn)
inactive: dose: 25.0 mg/kg/injection, schedule: Q04DX003 (ip), vehicle: saline with Tween-80 91 % of control | dose: 50.0 mg/kg/injection, schedule: Q04DX003 (ip), vehicle: saline with Tween-80 95 % of control | [6] 90 % of control and 91 % of control

Cc1ccc(S(=O)(=O)C[n+]2cc(C)cc(C)c2)cc1
inactive: dose: 100.0 mg/kg/injection, schedule: Q04DX003 (ip), vehicle: saline 95 % of control | dose: 200.0 mg/kg/injection, schedule: Q04DX003 (ip), vehicle: saline 103 % of control

O=S(=O)(NCCCl)c1cc(Cl)c(Cl)cc1Cl
inactive: dose: 100.0 mg/kg/injection, schedule: Q01DX001 (ip), vehicle: carboxymethylcellulose (CMC) 97 % of control | dose: 200.0 mg/kg/injection, schedule: Q01DX001 (ip), vehicle: carboxymethylcellulose (CMC) 94 % of control | dose: 400.0 mg/kg/injection, schedule: Q01DX001 (ip), vehicle: carboxymethylcellulose (CMC) 94 % of control

CCCCNC(=O)n1ncc2ccc([N+](=O)[O-])cc21
inactive: [1] 105 % of control | [2] 105 % of control | [7] 102 % of control

Cc1nc(N)[nH]c(=O)c1CCCNC(=O)c1ccc(C(=O)O)cc1
inactive: dose: 25.0 mg/kg/injection, schedule: Q01DX001 (ip), vehicle: saline with Tween-80 90 % of control | dose: 50.0 mg/kg/injection, schedule: Q01DX001 (ip), vehicle: saline with Tween-80 97 % of control | [3] 93 % of control

CCCCCCOC(=O)C(C)OC(=O)OCCOCCOC(=O)OC(C)C(=O)OCCCCCC (stereo not drawn)
inactive: [1] 100 % of control | [2] 96 % of control | [7] 100 % of control

CCOC(=O)c1c(C)nc(C)c(C(=O)OCC)c1C
inactive: [3] 101 % of control | [4] 99 % of control | [5] 95 % of control

CCCCCCC(=O)/C=C/c1ccc(Cl)c(Cl)c1
inactive: dose: 100.0 mg/kg/injection, schedule: Q01DX009 (ip), vehicle: acetone 92 % of control | dose: 100.0 mg/kg/injection, schedule: Q04DX003 (ip), vehicle: acetone 101 % of control | dose: 200.0 mg/kg/injection, schedule: Q01DX009 (ip), vehicle: acetone 92 % of control | dose: 200.0 mg/kg/injection, schedule: Q04DX003 (ip), vehicle: acetone 93 % of control | dose: 400.0 mg/kg/injection, schedule: Q04DX003 (ip), vehicle: acetone 98 % of control

Cc1cc(C(=O)C=[N+]=[N-])c(CN2C(=O)c3ccccc3C2=O)c(=O)n1C
inactive: dose: 100.0 mg/kg/injection, schedule: Q04DX003 (ip), vehicle: other 100 % of control | dose: 200.0 mg/kg/injection, schedule: Q04DX003 (ip), vehicle: other 93 % of control | dose: 400.0 mg/kg/injection, schedule: Q04DX003 (ip), vehicle: other 94 % of control

CC1=C2CC(C(C)(C)O)CCC2(C)CC/C1=N\NC(N)=S (stereo not drawn)
inactive: [8] 98 % of control | [9] 86 % of control

CSc1ccc([PH+](c2ccc(SC)cc2)c2ccc(SC)cc2)cc1.CSc1ccc([PH+](c2ccc(SC)cc2)c2ccc(SC)cc2)cc1.[Cl][Hg][Cl]
inactive: dose: 50.0 mg/kg/injection, schedule: Q01DX009 (ip), vehicle: Klucel (hydroxypropylcellulose) (HPC) 89 % of control | dose: 100.0 mg/kg/injection, schedule: Q01DX009 (ip), vehicle: Klucel (hydroxypropylcellulose) (HPC) 92 % of control and 98 % of control | dose: 200.0 mg/kg/injection, schedule: Q01DX009 (ip), vehicle: Klucel (hydroxypropylcellulose) (HPC) 94 % of control and 103 % of control

c1ccc(C(c2cccc3ccccc23)N2CCCCC2)cc1 (stereo not drawn)
inactive: [8] 94 % of control | [6] 108 % of control | dose: 200.0 mg/kg/injection, schedule: Q01DX009 (ip), vehicle: saline with Tween-80 97 % of control | [10] 96 % of control | [9] 95 % of control | dose: 400.0 mg/kg/injection, schedule: Q04DX003 (ip), vehicle: saline with Tween-80 102 % of control

COc1ccc(-c2oc3ccccc3c(=O)c2O)cc1OC
inactive: dose: 50.0 mg/kg/injection, schedule: Q01DX001 (ip), vehicle: saline 87 % of control | [1] 98 % of control | [2] 91 % of control | [7] 93 % of control

CN1CCC2(CC1)C(=O)N(c1ccccc1)C(=O)C2c1ccccc1 (stereo not drawn)
inactive: [11] 102 % of control | [12] 98 % of control

Nc1ccc2c(c1)C(=O)c1ccccc1-2
inactive: [11] 88 % of control | [12] 95 % of control | dose: 400.0 mg/kg/injection, schedule: Q01DX001 (ip), vehicle: Klucel (hydroxypropylcellulose) (HPC) 97 % of control

CCCCCc1cc(O)c(C2CC(C)CCC2C(C)C)c(OC(=O)c2ccc([N+](=O)[O-])cc2[N+](=O)[O-])c1 (stereo not drawn)
inactive: dose: 100.0 mg/kg/injection, schedule: Q04DX003 (ip), vehicle: Klucel (hydroxypropylcellulose) (HPC) 104 % of control | dose: 200.0 mg/kg/injection, schedule: Q04DX003 (ip), vehicle: Klucel (hydroxypropylcellulose) (HPC) 88 % of control | dose: 400.0 mg/kg/injection, schedule: Q04DX003 (ip), vehicle: Klucel (hydroxypropylcellulose) (HPC) 88 % of control

C=CCN(CC=C)CCNc1nc(C(Cl)(Cl)Cl)nc2ccc(Cl)cc12
inactive: [6] 102 % of control | [10] 87 % of control

O=C(/C=C/c1ccc2c(c1)OCO2)c1cccc([N+](=O)[O-])c1
inactive: dose: 100.0 mg/kg/injection, schedule: Q04DX002 (ip), vehicle: Klucel (hydroxypropylcellulose) (HPC) 93 % of control | dose: 200.0 mg/kg/injection, schedule: Q04DX002 (ip), vehicle: Klucel (hydroxypropylcellulose) (HPC) 104 % of control | dose: 400.0 mg/kg/injection, schedule: Q04DX002 (ip), vehicle: Klucel (hydroxypropylcellulose) (HPC) 100 % of control

N#C/C(=C\C1CC(Br)CC(Br)C1O)C1CCC([N+](=O)[O-])CC1 (stereo not drawn)
inactive: dose: 100.0 mg/kg/injection, schedule: Q04DX002 (ip), vehicle: saline with Tween-80 90 % of control | dose: 200.0 mg/kg/injection, schedule: Q04DX002 (ip), vehicle: saline with Tween-80 90 % of control | dose: 400.0 mg/kg/injection, schedule: Q04DX002 (ip), vehicle: saline with Tween-80 93 % of control
